The results in this text go back to the METLIN SMRT retention time set (Domingo-Almenara et al. 2019).

A short description of this data set: gradient 5% acetonitrile 3 min, to 50% in 2 min, to 85% in 15 min, held 3 min, 100 µL/min. As to conditions: column: Zorbax Extend-C18 2.1 x 50 mm; eluents: water / acetonitrile, 0.1% formic acid. The method, boiled down: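 Data were gathered over 3 months by HPLC coupled to a quadrupole time-of-flight mass spectrometer, operated in positive and negative ionization mode. Mixtures of ~100 pure standards ran on a Zorbax Extend-C18 column (2.1 × 50 mm, 1.8 μm) at 100 μL/min, with water and acetonitrile each containing 0.1% formic acid and dead and dwell volumes of 40 μL and 900 μL. Retention time was read from adduct peaks picked by computer and checked manually.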
Consider `Cc1cc(N2CCCC2)n2nc(CN3CCN(c4cccc(Cl)c4)CC3)nc2n1`, for which the RP-LC retention time worked out at 663 s. Take `Cc1cccc(NC(=O)Cn2nc(N3CCSCC3)c3ccccc3c2=O)c1`: the RP-LC retention time amounted to 961 s. With `Cc1ccc(-n2cc3c(N4CCCC(C(=O)NCc5ccc(C(F)(F)F)cc5)C4)ncnc3n2)cc1` (stereo not given) the figure was 786 s; with `O=C(Cn1cnc2ccccc2c1=O)NC1CC1`, 596 s; with `O=S(=O)(Cc1ccccc1Cl)NCCN1CCN(c2ccc(F)cc2)CC1`, 591 s. As for `CC1(C)COc2ccc(NC(=O)c3ccc(Br)o3)cc2NC1=O`, the RP-LC retention time was 824 s. For `CCCC(=O)Nc1nc(C(=O)OCC)cs1`, the RP-LC retention time was found to be 700 s. With `CCOc1ccc(NC(=O)c2cc(=O)c3cc(Cl)c(C)cc3o2)c2cccnc12` the figure was 714 s.

For the compound `COc1ccc(-c2nnc(-c3cccnc3N3CCN(c4ccc(C)cc4)CC3)o2)cc1`, the RP-LC retention time was found to be 1060 s. On to `Cc1[nH]c(=O)[nH]c(=O)c1S(=O)(=O)NC1CCCC1`, for which the RP-LC retention time is 620 s. `Cc1ccc(S(=O)(=O)N2CCC(n3cnc4c(C)cccc4c3=O)CC2)cc1`: the RP-LC retention time stood at 929 s. With `CCN(CC)C(=O)c1cnc2snc(C)c2c1N1CCC(C(=O)Nc2cc(F)ccc2F)CC1` the figure was 940 s. With `COc1cccc(OC(=O)c2cn(CC(C)C)c(=O)c3ccccc23)c1` the figure was 1210 s; with `O=C(Nc1ccc(Cn2cncn2)cc1)c1cccs1`, 661 s. For `COC(=O)CNC(=O)NCCn1c(-c2ccc(F)cc2)nc2ccccc21` the value was 696 s.

`COc1ccc(-n2c(=O)n(C)c(=O)c3cc(C(=O)Nc4ccccc4C)cnc32)cc1`: the RP-LC retention time amounted to 849 s. `CC(=O)N1CCc2cc(N3CC(C(=O)Nc4ccc(Cl)cc4)CC3=O)ccc21` (stereo not given) came in with an RP-LC retention time of 750 s. With `Cc1cnc2n(c1=O)C(CC(=O)NCCc1ccc(S(N)(=O)=O)cc1)CS2` (stereo not given) the figure was 575 s; with `CCc1nnc(-c2ccc3ccn(CC(=O)Nc4cccc(C(C)=O)c4)c3c2)o1`, 788 s. `CCn1c(=O)c2cc(C(=O)Nc3ccc(OC)c(OC)c3)nn2c2ccccc21` yielded an RP-LC retention time of 837 s. For `Cc1cccc(NC(=O)N2CCN(c3nc4ccccc4nc3C(F)(F)F)CC2)c1C` the value was 1100 s; for `CCc1noc(NC(C)=O)c1-c1ccc(C)c(S(=O)(=O)Nc2cc(C)ccc2OC)c1`, 884 s; for `COc1ccc(NC(=O)N2c3ccccc3CC2c2nc(C3CC3)no2)c(C)c1` (stereo not given), 978 s. With `Cc1nn(-c2ccccc2)c2ccn(CC(=O)N3CCN(c4cccc(Cl)c4)CC3)c(=O)c12` the figure was 927 s.

`Cc1nc(-c2cc(S(=O)(=O)NC(C)Cc3ccco3)c(C)s2)sc1C` (stereo not given): the RP-LC retention time turned out to be 1060 s. With `Cc1occc1C(=O)NC1CCc2nn(C)c(=O)n2CC1` (stereo not given) the figure was 604 s. In turn, `CCN1C(=O)COc2cc(-c3noc(C(=O)NCCC(C)C)n3)ccc21` registered an RP-LC retention time of 979 s. For `CNC(=O)OCN1C(=O)C2CC=CCC2C1=O` (stereo not given) the value was 677 s; for `Cc1cc(Nc2ccccc2)nc(N2CCN(C(=O)Nc3ccc(F)cc3)CC2)n1`, 696 s. For the compound `Fc1ccc(Nc2ncnc3nc[nH]c23)cc1`, the RP-LC retention time turned out to be 582 s. Turning to `Cc1ccc(CNC(=O)c2cn3ccncc3n2)cc1`, the RP-LC retention time came out at 686 s. In the case of `CCOc1cc(C(=O)N(CC)c2nc(-c3ccccc3)cs2)cc(OCC)c1OCC`, the RP-LC retention time was 663 s.

Compound `Cc1cc(C)n2nc(CN(C(=O)c3cccs3)c3ccccc3)nc2n1` returned an RP-LC retention time of 777 s. As for `CN(C)c1nn(CC(=O)NCc2cccc(C(F)(F)F)c2)cc1-c1ccccc1`, the RP-LC retention time stood at 984 s. Take `Cc1cccc(-c2noc(CN3N=NC4C(=O)N(c5ccccc5)C(=O)C43)n2)c1` (stereo not given): the RP-LC retention time came out at 989 s. With `CCc1cccc2[nH]c3cc([N+](=O)[O-])ccc3c12` the figure was 1180 s; with `Cc1ccc(-c2cc(C(=O)NCCc3sccc3C)c(C)[nH]2)cc1C`, 1040 s. For `Cc1ccc(-c2noc(-c3ccccc3S(=O)(=O)NCCC(C)C)n2)cc1` the value was 1330 s; for `CCOc1ccc(S(=O)(=O)N2CCC(C(=O)N3CCN(C)CC3)CC2)cc1`, 569 s; for `COc1ccccc1NS(=O)(=O)c1cn(C(C)C)c2ncccc12`, 886 s. For `Cc1cc(=O)n(CC(=O)Nc2cc(F)cc(F)c2)c(N2CCCC2)n1` the value was 670 s. Turning to `CCN1CCN(c2cc(C)c3cc(NC(=S)N4CCC(N5CCCCC5)CC4)ccc3n2)CC1`, the RP-LC retention time is 488 s.

Compound `O=c1ccc(-c2nc(-c3ccc(F)cc3)no2)nn1Cc1cc(F)cc(F)c1` registered an RP-LC retention time of 1110 s. For `Cc1oc2ccn(Cc3ccc(F)cc3)c(=O)c2c1C(=O)NCc1cc(F)cc(F)c1` the value was 1130 s; for `CCc1cc(=O)n(CC(=O)Nc2ccc(C)cc2)c(N2CCOCC2)n1`, 612 s. With `Cc1nc2c(sc3nc(-c4ccccc4)ccc32)c(=O)n1CC(=O)Nc1ccccc1F` the figure was 982 s; with `COC(=O)c1c(C)[nH]c(C(=O)N2CCC(CC(=O)N3CCOCC3)CC2)c1C`, 636 s. In turn, `COc1cccc(NC(=O)c2cn(CC3CCCO3)cc3c(=O)n(-c4ccccc4)nc2-3)c1` (stereo not given) gave an RP-LC retention time of 997 s.

As for `COc1ccc(N2CC(c3noc(-c4cc(OC)c(OC)c(OC)c4)n3)CC2=O)cc1` (stereo not given), the RP-LC retention time was found to be 787 s. With `O=C(Nc1ccccc1Cl)N1CCC(N2CCN(Cc3cccc(F)c3)C(=O)C2=O)CC1` the figure was 749 s. Turning to `Cc1cc2c(=O)n(CC(=O)Nc3ccc(Cl)cc3)ccc2s1`, the RP-LC retention time came to 852 s. `Fc1ccccc1-c1noc(N2CCCCC2)n1` returned an RP-LC retention time of 982 s. Regarding `CCCN1C(=O)Cc2cc(C(=O)NC3CC3)ccc21`, the RP-LC retention time amounted to 652 s. `O=C(N1CCC(c2nnc(-c3ccc(F)cc3)o2)CC1)C1(c2ccccc2)CCOCC1` had an RP-LC retention time of 631 s. As to `O=C(CN1CCc2ccccc2C1C(=O)N1CCCC1)NCc1ccc(C(F)(F)F)cc1` (stereo not given), the RP-LC retention time came to 880 s. For the compound `COc1ccc(C2C(C(=O)Nc3ccc4c(c3)OCO4)c3cc(OC)c(OC)cc3C(=O)N2C)cc1` (stereo not given), the RP-LC retention time stood at 798 s. For `CCOc1ccc(N2C(=O)C3N=NN(Cc4nc(-c5cccc(C)c5)no4)C3C2=O)cc1` (stereo not given) the value was 1040 s; for `CCCNC(=O)c1cc(-c2ccc(F)cc2)cn1CC`, 925 s. For `CC(C(=O)N1CC2CN(S(=O)(=O)c3cccc(F)c3)CC(C1)O2)c1ccccc1` (stereo not given) the value was 878 s; for `CC(C)NC(=O)c1ccc2c(c1)N(C)C(=O)CS2`, 698 s. For `CCCc1ccc(S(=O)(=O)NC2CCN(c3ccc(=O)n(CC4CC4)n3)CC2)cc1` the value was 972 s. The compound `CCCCN(CC)C(=O)Cn1nc(Cc2ccncc2)c2ccccc2c1=O` returned an RP-LC retention time of 624 s. Turning to `Cc1noc(CNC(=O)C2CCN(C(=O)Cn3c(=O)oc4ccccc43)CC2)n1`, the RP-LC retention time stood at 608 s. For `CC(C)NC(=O)Cn1c(C2CCCO2)nc2ccccc21` (stereo not given) the value was 585 s; for `CCN(CC)CCCNC(=O)c1c(-c2ccc(Br)s2)noc1C`, 652 s; for `COc1ccccc1C(=O)N1CCCC1COc1ccc(C(=O)NC2CC2)cc1` (stereo not given), 759 s. Turning to `CC1CN(C(=O)Cn2cc(SCC(=O)NCC3CCCO3)c3ccccc32)CC(C)O1` (stereo not given), the RP-LC retention time was 723 s. The compound `CCOC(=O)c1sc(NC(=O)C(CC)Sc2nc(C)cc(C)n2)nc1C` (stereo not given) yielded an RP-LC retention time of 1080 s. Regarding `Cc1cc(Cl)ccc1NC(=O)C1CCN(C(=O)c2ncn3c2COC(c2ccc(F)cc2)C3)CC1` (stereo not given), the RP-LC retention time was determined as 871 s.

`COc1ccc(-c2nc3cnccn3c2Nc2ccc(C)cc2C)cc1OC` gave an RP-LC retention time of 871 s. For `O=C(Cn1nc(C(=O)N2CCCC2)c2ccccc21)NCc1ccc2c(c1)OCO2` the value was 757 s. With `CCc1noc(-c2ccc(-n3cnc(C(=O)NCC(C)C)c3)nc2)n1` the figure was 814 s; with `Cc1cc2n(n1)CCC(=O)N2CCCC(=O)NCCCOC(C)C`, 618 s; with `CN(C)c1nc2cc(C(=O)N3CCC4(CC3)OCCO4)sc2n1-c1ccccc1`, 647 s. With `COc1cccc(-n2c(N3CCC(C(=O)NCC(C)C)CC3)nc3ccsc3c2=O)c1` the figure was 773 s. In turn, `CCN1C(=O)C2(CCN(S(=O)(=O)c3cccs3)CC2)c2ccccc21` displayed an RP-LC retention time of 983 s. With `COc1ccc(C2Cn3nnc(-c4nc(-c5cccc(Br)c5)no4)c3CO2)cc1` (stereo not given) the figure was 1170 s. For `COC(=O)c1ccc(C(=O)NCCN2CCN(c3ccc(F)cc3)CC2)cc1` the value was 576 s; for `Cc1cc(N2CCN(C)CC2)nc2ccc(NC(=S)N(C)C3CCCCC3)cc12`, 583 s. Turning to `Cn1nc(CN2CCCC2)c2c1CCN(S(=O)(=O)c1ccccc1C(F)(F)F)C2`, the RP-LC retention time was determined as 655 s.
